Measurements published in ChEMBL document CHEMBL3045035, “Synthesis and insect antifeedant activity of stilbene derivatives against Brontispa longissima Larvae” (2013).

Columns and labels:
[1] = test system: Brontispa longissima; assay: Antifeedant activity against third-instar larval stage of Brontispa longissima in […] assessed as decrease in leaf surface consumption treated for 30 secs prior to larval infestation measured after 48 hr by leaf-dipping method; type: functional
[2] = test system: Brontispa longissima; assay: Ratio of compound AFC50 to combrestatin A-4 AFC50 for third-instar larval stage of Brontispa longissima; type: functional

`COc1ccc(/C=C(/C#N)c2cc(OC)c(OC)c(OC)c2)cc1O` showed an AFC50 [1] of 0.431 mg/mL and a pAFC50 [1] of 0.36.
With `COc1ccc(/C=C(/C(=O)O)c2cc(OC)c(OC)c(OC)c2)cc1O` the Ratio [2] was 7, the AFC50 [1] was 1.461 mg/mL and the pAFC50 [1] was -0.17.
Molecule `COC(=O)/C(=C/c1ccc(OC)c(O)c1)c1cc(OC)c(OC)c(OC)c1` has a Ratio [2] of 7, an AFC50 [1] of 1.453 mg/mL and a pAFC50 [1] of -0.16.
Work on `O=[N+]([O-])c1ccc(/C=C\c2ccc(O)cc2)cc1` yielded an AFC50 [1] of 1.185 mg/mL and a pAFC50 [1] of -0.07.
Work on `COc1ccc(/C=C\c2ccc(O)cc2)cc1[N+](=O)[O-]` yielded an AFC50 [1] of 1.301 mg/mL and a pAFC50 [1] of -0.11.
`COc1ccc(/C=C\c2ccc(OC(C)=O)cc2)cc1OC(C)=O` gave an AFC50 [1] of 2.501 mg/mL and a pAFC50 [1] of -0.4.
With `CC(=O)Oc1ccc(/C=C\c2ccc(OC(C)=O)c(OC(C)=O)c2)cc1` the AFC50 [1] was 0.64 mg/mL and the pAFC50 [1] was 0.19.
For `Oc1ccc(/C=C\c2ccc3c(c2)OCO3)cc1`, the AFC50 [1] was 1.005 mg/mL and the pAFC50 [1] was 0.
Molecule `COc1ccc(/C=C(/CO)c2cc(OC)c(OC)c(OC)c2)cc1O` has an AFC50 [1] of 0.226 mg/mL and a pAFC50 [1] of 0.65.
`COc1ccc(/C=C(/C(N)=O)c2cc(OC)c(OC)c(OC)c2)cc1O` showed an AFC50 [1] of 0.736 mg/mL and a pAFC50 [1] of 0.13.
With `COc1cc(/C=C\c2ccc([N+](=O)[O-])cc2[N+](=O)[O-])cc(OC)c1OC` the Ratio [2] was 5, the AFC50 [1] was 1.05 mg/mL and the pAFC50 [1] was -0.02.
`COc1cc(/C=C\c2cc(Cl)cc(Cl)c2)cc(OC)c1OC` was tested, and the Ratio [2] was 5, the AFC50 [1] was 2.234 mg/mL and the pAFC50 [1] was -0.35.
For `COc1cc(/C=C\c2ccc(OC(C)=O)c(OC(C)=O)c2)cc(OC)c1OC`, the AFC50 [1] was 1.918 mg/mL and the pAFC50 [1] was -0.28.
With `COc1cc(/C=C\c2ccc3c(c2)OCO3)cc(OC)c1OC` the AFC50 [1] was 0.731 mg/mL and the pAFC50 [1] was 0.14.
`Oc1ccc(/C=C\c2ccccc2)cc1` gave an AFC50 [1] of 1.161 mg/mL and a pAFC50 [1] of -0.06.
Molecule `COc1ccc(/C=C\c2ccc(OC(C)=O)cc2)cc1` has an AFC50 [1] of 0.732 mg/mL and a pAFC50 [1] of 0.14.
`Oc1ccc(/C=C\c2ccc(Cl)cc2)cc1` showed an AFC50 [1] of 0.412 mg/mL and a pAFC50 [1] of 0.39.
Work on `COc1cc(/C=C\c2ccc(Cl)cc2)cc(OC)c1OC` yielded an AFC50 [1] of 1.634 mg/mL and a pAFC50 [1] of -0.21.
With `COc1ccc(/C=C\c2cc(OC)c(OC)c(OC)c2)cc1` the AFC50 [1] was 0.327 mg/mL and the pAFC50 [1] was 0.48.
With `COc1cc(/C=C\c2ccc([N+](=O)[O-])cc2)cc(OC)c1OC` the Ratio [2] was 3, the AFC50 [1] was 0.982 mg/mL and the pAFC50 [1] was 0.01.
`COc1cc(/C=C\c2ccccc2)cc(OC)c1OC` was tested, and the AFC50 [1] was 0.529 mg/mL and the pAFC50 [1] was 0.28.
`COc1cc(/C=C\c2ccc(OC(C)=O)cc2)cc(OC)c1OC` was tested, and the Ratio [2] was 3, the AFC50 [1] was 0.843 mg/mL and the pAFC50 [1] was 0.07.
With `COc1cc(/C=C\c2ccc(O)cc2)cc(OC)c1OC` the AFC50 [1] was 1.261 mg/mL and the pAFC50 [1] was -0.1.
`COc1ccc(/C=C\c2cc(OC)c(OC)c(OC)c2)cc1O` [COMBRETASTATIN A4] gave an AFC50 [1] of 0.218 mg/mL and a pAFC50 [1] of 0.66.
With `COc1ccc(/C=C/c2cc(OC)c(OC)c(OC)c2)cc1O` [E-COMBRETASTATIN A-4] the AFC50 [1] was 0.357 mg/mL and the pAFC50 [1] was 0.45.
Work on `Oc1ccc(/C=C/c2cc(O)cc(O)c2)cc1` [RESVERATROL] yielded an AFC50 [1] of 0.816 mg/mL.
